Each structure is given as a SMILES string. Some results are limits rather than exact numbers.

One data set has as its system HDMEC. In words: VEGF-induced proliferation. It counts as cell-based, human. The conditions noted are these: 72 h, NS = inhibition less than 50%. Here is the method:
(§1) Cells were seeded in triplicate at a concentration of 6.0 × 10^5/ml, in 2 ml of complete medium in 6-well plates. […] Growth factors, FGF-2 (25 ng/ml), EGF (75 ng/ml) and VEGF (10 ng/ml) and test compounds at different concentration were added and cells incubated for a further 72 h. Control wells were treated with 5 μl DMSO. Concentration ranges of test compounds and pre-incubation times were based on pilot studies. After 72 h, cells were washed in PBS, detached in 0.05%w/v trypsin in PBS, and counted on a Coulter counter (Coulter Electronics, Hialeah, FL) set to a threshold of 30 μm. Experiments were performed in triplicate and repeated at least twice.

In data set [1] the test system is BAEC. The data set can be described thus: FGF-2 invasion in Matrigel. It counts as cell-based, bovine. The conditions noted are these: Bos taurus, FGF-2 25 ng/ml. How it is done:
The effect of the test compounds on cell invasion was investigated using a Transwell Boyden chamber system coated with reconstituted growth factor-depleted Matrigel. […] Representative photomicrographs for the effect of compound 1 are shown (Figure 7B).
Figure 7 The effect of compounds 1 (AI) and 2 (AII) on BAEC invasion into a Matrigel layer was studied using the chemoinvasion assay described below. Cells (1.7 × 10^4) were added to the Matrigel coated upper Boyden chamber and the compounds with or without FGF-2 added to the lower chamber. Cell invasion was measured after 24 h and assessed as described below. […] Results are the mean of three experiments. (B) Representative photomicrographs are shown for the effect of compound 1 on BAEC (original magnification × 20).
The procedure described above was repeated and wells having a uniform network of tubes were used to assess invasion into a second layer of Matrigel. Matrigel (100 μl), with and without the test compounds was added to the cells and allowed to polymerise (1 h at 37°C). FCS (15%) was added and the cells incubated for 24–72 h when tube growth into the upper layer was measured as described above.

Data set [2] deals with BAEC. In words: EGF-induced proliferation. It counts as cell-based, bovine. Particulars: EGF 75 ng/ml, 72 h, NS = inhibition less than 50%. Here is the method: as §1
Another data set concerns T1, FGFR-2 (Homo sapiens).
T1 construct: coated overnight with 2 μg/ml of the soluble receptors (FGFR-1 or -2 and VEGFR-1 or -2); purchased Santa Cruz Biotechnology (receptor); R&D Systems (FGF-2)
T1 sequence (P09038 143-288): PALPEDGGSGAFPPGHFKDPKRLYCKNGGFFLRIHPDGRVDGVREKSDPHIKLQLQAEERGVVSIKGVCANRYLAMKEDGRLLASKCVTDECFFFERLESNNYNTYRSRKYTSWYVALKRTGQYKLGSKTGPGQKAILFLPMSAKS
The data set can be described thus: ELISA binding assay of FGF-2 to soluble receptor. Particulars: added together with FGF-2, no pre-incubation. Here is the method: (§2) Figure 8 The effect of increasing concentrations of compound 1 on FGF-2 binding to FGFR-1 and -2. The soluble receptor was coated onto the wells of a 96-well plate and blocked with 1% BSA. […] After 2 h the plate was washed and incubated with antibodies to the growth factor, then peroxidase-conjugated IgG for 45 min. Peroxidase substrate was added and the absorbance read at 405 nm (se below for detail).
(§3) Competition between growth factors, their cell surface receptors and test compounds was assessed in an ELISA assay as described by. A 96-well plate was coated overnight with 2 μg/ml of the soluble receptors (FGFR-1 or -2 and VEGFR-1 or -2) and blocked with 1% BSA in PBS containing 0.05% Tween-20. […] The plate was washed (× 3 with PBS-Tween-20) and incubated with anti-FGF-2 IgG (1:500 in PBS-Tween-20) or anti-VEGF IgG (!:250 in PBS-Tween-20) for 45 min, washed and incubated with horseradish peroxidase conjugated goat anti-IgG (Santa Cruz, 1:1000) for a further 45 min. After washing (× 3), ABTS peroxidase substrate was added and the absorbance read at 405 nm. IC50 values were calculated from the data using the EZ-Fit enzyme kinetic software (Perella Scientific Inc., Amherst, USA).

The test system of the next data set is T2, FGFR-1 (Homo sapiens).
T2 construct: coated overnight with 2 μg/ml of the soluble receptors (FGFR-1 or -2 and VEGFR-1 or -2); purchased Santa Cruz Biotechnology (receptor); R&D Systems (FGF-2)
T2 sequence (P09038 143-288): as above
The data set can be described thus: ELISA binding assay of FGF-2 to soluble receptor. The conditions noted are these: added together with FGF-2, no pre-incubation. Here is the method:
as §2, §3
In general terms: An ELISA detects its analyte on a solid surface through an enzyme-linked reagent.

Data set [3] has as its system BAEC. In words: FGF-2-induced migration in wound healing model. Particulars: Bos taurus, FGF-2 25 ng/ml, 18 h. It counts as cell-based, bovine. Here is the method: Cells (6 × 10^4/ml) were added to a Thermanox cover slip in a 24-well plate in complete medium and incubated for 24–48 h. When confluent, the medium was replaced with DMEM containing 0.1% FCS and incubated for a further 48 h. Cover slips were washed (PBS, × 3), wounded with a sterile razor to produce a straight edged cut and washed in PBS to remove dislodged cells. Cover slips were added to a fresh 24-well plate in 0.1% FCS and incubated with FGF-2 (or other growth factors) and a range of concentrations of test compounds for 18 h. Under these conditions, there was negligible proliferation but measurable migration. Slides were fixed in ethanol (100%), stained with methylene blue and photographed. For each slide, 10 fields of view (2 mm × 1.45 mm) were counted at random. Each experiment was performed in triplicate and at least twice.

Data set [4] deals with chick chorioallantoic membrane. In words: Chick chorioallantoic membrane (CAM) assay. It counts as in vivo. How it is done: The angiogenic activity of test compounds was determined using the semi-quantitative chick chorioallantoic assay (CAM) as described previously. To expose the CAM a window was created in the shells of 4 day-old chicken eggs. […] […] This approach enabled calculation of an accumulated response in each group. To photograph the membrane, 2 cm^3 of a 50% emulsion of aqueous paraffin oil containing 2% Tween-80 was injected at the site of application and photographed using a Leitz dissecting microscope. Each experiment was performed five times and statistical significance was determined by the Mann-Whitney U test and the data is expressed as a median value (m).

Data set [5] deals with BAEC. The data set can be described thus: VEGF-induced proliferation. It counts as cell-based, bovine. The conditions noted are these: 72 h, NS = inhibition less than 50%. Here is the method:
as §1

For `COc1cc(C=Cc2ccc(O)cc2)cc(OC2OC(COC3OC(C)C(O)C(O)C3O)C(O)C(O)C2OC2OC(C)C(O)C(O)C2O)c1` (stereo not shown) [Compound 1], the “VEGF-induced proliferation, IC50” value in the data set on HDMEC and in the data set on BAEC [5] was “no significant inhibitory effect” throughout. For the same compound, the 50% inhibitory concentration (IC50) (usually the midpoint of a concentration-inhibition curve) is over 71.5 µM in the data set on HDMEC (Homo sapiens); 11.1 ± 0.28 µM with BAEC [1]; over 71.5 µM in the data set with BAEC [2] (Bos taurus); 41.8 ± 0.95 µM in the data set on BAEC [3]; over 71.5 µM in the data set with BAEC [5] (Bos taurus). Also, the “EGF-induced proliferation, IC50” value with BAEC [2] is “no significant inhibitory effect”. Besides, the “Effect on FGF-2 binding to FGFR-2 when added with FGF-2” value in the data set on FGFR-2 (Homo sapiens) is on record as “no significant inhibitory effect”. Besides, the “Effect on FGF-2 binding to FGFR-1 when added with FGF-2” value with FGFR-1 (Homo sapiens) is “no significant inhibitory effect”. Further, the “Inflammatory or angiogenic response of compound alone” value in data set [4] (10 μg compound alone, without FGF-2) is “no inflammatory or angiogenic response”. Besides, the “In vivo CAM assay, inhibition of FGF-2-induced angiogenesis” value in data set [4] (10 μg compound with FGF-2, 6 days exposure, listed as I) is given as “complete inhibition”. Also, the “Degree of angiogenesis (m), median score” value in data set [4] (10 μg compound with FGF-2, scale 0 to 3 or greater) is 0.

Values taken from article PMC2678990, “Stilbene glycosides are natural product inhibitors of FGF-2-induced angiogenesis” (BMC Cell Biology, 2009).
